Measured values published in US7547532B2, “Three-dimensional structure of prostaglandin D synthase and utilization thereof” (Japan Science and Technology Agency, priority 2001, dated 2009).

Assays:
allergic reaction = details: known from Matsushita et al. 1998, various experimental models; cited from earlier work
[1] = cited from earlier work
sleep condition = details: administered in the ventricle of the brain of a mouse; cited from earlier work
hematopoietic PGDS = hematopoietic PGDS (Homo sapiens, UniProt O60760); test: PGDS enzymatic activity: conversion of PGH2 to PGD2 (confirmation of inhibitors); type: biochemical; details: metal ion in center of PGDS dimer
From the text: After a candidate compound for inhibition of hematopoietic PGDS is thus selected, the selected compound is contacted with the enzyme in the presence of the substrate (prostaglandin H2) to confirm the compound can inhibit the enzymatic activity (Shimizu, T., Yamamoto, S., and Hayaishi, O. (1979). Purification and properties of prostaglandin D synthase from rat brain. J. Biol. Chem. 254, 5222-5228). The measurement of enzymatic activity is, for example, carried out as follows: The substrate [1-^14C]prostaglandin(PG)H2 is prepared by reacting [1-^14C]arachidonic acid with cyclooxygenase. Since PGH2 is easily decomposed in aqueous solution (half-life: about 5 minutes), it is dried and stored at a low temperature (−80° C.). […] After the development, radioactivity of PGD2 fraction and other fraction are measured and the enzyme activity is calculated from the ratio of conversion to PGD2.
Alternatively, enzyme reaction is carried out using commercially available non-labeled PGH2. After the reaction, PGH2 is decomposed to 12(S)-hydroxy-8,10-trans-5-cis-heptadecatrienolic acid with the treatment by FeCl2 before quantifying with reverse phase HPLC using 11-β-PGE2 as an internal standard or commercially available ELISA to quantify PGD2.

human hematopoietic PGDS = target: T1, human hematopoietic PGDS (Homo sapiens, UniProt O60760, N144M); test: Glutathione binding/affinity to PGDS with metal ion; details: metal ion in center of PGDS dimer
T1 construct: made in house; host or cells: Escherichia coli BL21 (DE-3), plasmid pT7-7hPGDS
T1 sequence (O60760 2-199 N144M): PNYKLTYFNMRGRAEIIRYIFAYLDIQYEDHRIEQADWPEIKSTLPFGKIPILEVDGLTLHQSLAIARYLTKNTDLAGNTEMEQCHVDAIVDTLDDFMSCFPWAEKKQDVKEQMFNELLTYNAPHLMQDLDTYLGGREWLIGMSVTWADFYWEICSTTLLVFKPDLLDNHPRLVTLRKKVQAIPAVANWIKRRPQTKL

hematopoietic PGDS, sequence (O60760 whole entry): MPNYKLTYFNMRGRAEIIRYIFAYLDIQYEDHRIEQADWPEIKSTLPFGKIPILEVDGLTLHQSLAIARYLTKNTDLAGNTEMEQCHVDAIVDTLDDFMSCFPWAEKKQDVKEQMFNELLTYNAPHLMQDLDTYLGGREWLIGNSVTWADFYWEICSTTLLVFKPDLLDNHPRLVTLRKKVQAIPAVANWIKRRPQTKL

Compound: c1ccc(C(OC2CCN(CCCc3nnn[nH]3)CC2)c2ccccc2)cc1 [HQL-79, 4-benzhydryloxy-1-{3-(1H-tetrazol-5-yl)-propyl}piperidine]
- anti-allergic activity (allergic reaction): anti-allergic activity

Compound: CCCCC[C@H](O)/C=C/[C@@H]1[C@@H](C/C=C\CCCC(=O)O)[C@@H]2C[C@H]1OO2 [PGH2, prostaglandin H2]
- half-life in aqueous solution [1]: about 5 minutes

Compound: CCCCC[C@H](O)/C=C/[C@H]1C(=O)C[C@H](O)[C@@H]1C/C=C\CCCC(=O)O [prostaglandin D2, Prostaglandin D2]
- effect on sleep (sleep condition): sleep is induced

Compound: Calcium
- effect on reaction rate of PGDS enzyme (hematopoietic PGDS): increases the reaction rate of PGDS enzyme
- influence on glutathione binding (human hematopoietic PGDS): no influence on the glutathione binding

Compound: Magnesium
- increase of affinity of glutathione to PGDS (human hematopoietic PGDS): more than 3 times
